In PubChem BioAssay (NCI) one finds GI50 and TGI data, which are given here for 14 compounds.

Where “and” joins values, the source holds several entries; their conditions need not be identical. Identical values can stand only once.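 Test compounds were applied to cells in 96-well plates for 48 hours at 5 doses. The concentration for 50% growth inhibition is given as GI50. TGI: concentration producing complete growth inhibition.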

Test systems include CCRF-CEM leukemia; IGROV1 ovarian; MDA-MB-435; NCI/ADR-RES ovarian; OVCAR-8 ovarian; RPMI-8226 leukemia; RXF 393 renal; SNB-19 CNS; UACC-62 melanoma; SF-539 CNS.
Common to all, as to experiment: growth of human tumour cells (NCI), 48 h

Consider `Cc1cn2c(/C=N/N=C(N)N)c(-c3cccnc3)nc2s1`, for which the GI50 in the experiment on CCRF-CEM leukemia was 4.38 µM; with IGROV1 ovarian it was 15.6 µM; with MDA-MB-435, 2.4 µM; in the experiment on NCI/ADR-RES ovarian, 2.81 µM; in the experiment with OVCAR-8 ovarian, 27.4 µM; in the experiment with RPMI-8226 leukemia, 8.91 µM. Moreover, the GI50 with RXF 393 renal was 15200 nM; in the experiment on SNB-19 CNS, 12.7 µM; in the experiment on UACC-62 melanoma it was 11 µM. Moreover, the TGI worked out at 55 µM in the experiment on CCRF-CEM leukemia; 49.8 µM in the experiment with IGROV1 ovarian; 7.15 µM with MDA-MB-435; 9.97 µM in the experiment with NCI/ADR-RES ovarian; 69 µM in the experiment with OVCAR-8 ovarian; 58.9 µM in the experiment with RPMI-8226 leukemia. In addition, the TGI with RXF 393 renal was found to be 59.1 µM; with SNB-19 CNS, 28.9 µM; with UACC-62 melanoma, 23.6 µM.

Take `O=C(NC1C2CC3CC(C2)CC1C3)c1cc(/C=C/c2ccccc2)[nH]c(=S)n1` (centres undefined): the TGI in the experiment on CCRF-CEM leukemia, in the experiment with IGROV1 ovarian, in the experiment on OVCAR-8 ovarian, in the experiment with RPMI-8226 leukemia, in the experiment on RXF 393 renal and with SF-539 CNS was more than 100 µM throughout. The TGI with SNB-19 CNS and with UACC-62 melanoma was more than 100 µM throughout.

`COc1ccc2oc(C(=O)O)c3c2c1CCC3`: the TGI with CCRF-CEM leukemia, with IGROV1 ovarian, in the experiment on OVCAR-8 ovarian, in the experiment on RPMI-8226 leukemia, in the experiment with RXF 393 renal and in the experiment with SF-539 CNS was more than 100 µM each time. The TGI in the experiment on SNB-19 CNS and in the experiment with UACC-62 melanoma was more than 100 µM in each case.

With `O=S(O)CCCSSc1ccccc1`, the TGI is 93.3 µM with CCRF-CEM leukemia; 41.1 µM in the experiment with IGROV1 ovarian; more than 100 µM with OVCAR-8 ovarian; more than 100 µM with RXF 393 renal; 62.9 µM in the experiment on SF-539 CNS; more than 100 µM with SNB-19 CNS. For the same compound, the TGI with UACC-62 melanoma was more than 100 µM.

`CC1=C[P+](Cc2ccccc2)(c2ccccc2)CC1` (centres undefined): the TGI with CCRF-CEM leukemia, in the experiment with IGROV1 ovarian, with OVCAR-8 ovarian, in the experiment on RPMI-8226 leukemia, in the experiment on RXF 393 renal and in the experiment with SF-539 CNS was more than 100 µM each time. Moreover, the TGI in the experiment on SNB-19 CNS and in the experiment with UACC-62 melanoma was more than 100 µM in each case.

With `O=C1CC(O)(c2ccccc2)C(c2ccccc2)=C1c1ccccc1` (centres undefined), the TGI with CCRF-CEM leukemia is more than 100 µM; in the experiment with IGROV1 ovarian it was more than 100 µM; in the experiment with OVCAR-8 ovarian it was more than 100 µM; in the experiment with RPMI-8226 leukemia, 57.7 µM; in the experiment with RXF 393 renal, more than 100 µM; in the experiment on UACC-62 melanoma, more than 100 µM.

Take `CCOc1ccccc1NC(=O)CCc1n[nH]c(=S)o1`: the TGI with CCRF-CEM leukemia, with RPMI-8226 leukemia, with SF-539 CNS, with SNB-19 CNS and with UACC-62 melanoma was more than 100 µM in each case.

As for `O=C1c2ccccc2C(=O)N1C/C=C/CO`, the TGI in the experiment with CCRF-CEM leukemia, with IGROV1 ovarian, in the experiment with OVCAR-8 ovarian, with RPMI-8226 leukemia, in the experiment on RXF 393 renal and with SF-539 CNS was more than 100 µM each time. Besides, the TGI with SNB-19 CNS and with UACC-62 melanoma was more than 100 µM each time.

As to `CCC[CH2][Sn]1([CH2]CCC)[O]C(=O)c2ccc(C)cc2[O]1`, the GI50 with CCRF-CEM leukemia is 0.222 µM; in the experiment on IGROV1 ovarian, 1.17 µM; with OVCAR-8 ovarian, 0.818 µM; with RPMI-8226 leukemia, 0.21 µM; with RXF 393 renal, 306 nM; in the experiment on SF-539 CNS, 0.518 µM. Moreover, the GI50 is 0.32 µM in the experiment with SNB-19 CNS and 0.437 µM in the experiment on UACC-62 melanoma. For the same compound, the TGI came to 0.874 µM in the experiment on CCRF-CEM leukemia; 2.44 µM in the experiment on IGROV1 ovarian; 2.1 µM in the experiment with OVCAR-8 ovarian; 0.76 µM in the experiment with RPMI-8226 leukemia; 0.839 µM in the experiment on RXF 393 renal; 1.73 µM with SF-539 CNS. In addition, the TGI in the experiment with SNB-19 CNS was determined as 1.12 µM; in the experiment on UACC-62 melanoma it was 1.57 µM.

`COc1cc2c(cc1OC)C(=O)Cc1ccc(OC)c(OC)c1CN(C)CC2`: the TGI in the experiment on CCRF-CEM leukemia, in the experiment on IGROV1 ovarian, in the experiment with OVCAR-8 ovarian, in the experiment with RPMI-8226 leukemia, in the experiment with SF-539 CNS and in the experiment with SNB-19 CNS was more than 100 µM throughout. The compound further gave a TGI in the experiment on UACC-62 melanoma of more than 100 µM.

Consider `Clc1cc2n[se]nc2cc1Cl`, for which the TGI in the experiment on CCRF-CEM leukemia, with IGROV1 ovarian, in the experiment with OVCAR-8 ovarian, in the experiment on RPMI-8226 leukemia, in the experiment with RXF 393 renal and in the experiment with SF-539 CNS was more than 100 µM each time. The TGI in the experiment with SNB-19 CNS and in the experiment on UACC-62 melanoma was more than 100 µM throughout.

Consider `CC[C@@H]1C[C@H]2CC3c4[nH]c5ccc(O)cc5c4CCN(C2)C31`, for which the TGI in the experiment with CCRF-CEM leukemia, in the experiment with IGROV1 ovarian, in the experiment with OVCAR-8 ovarian, in the experiment with RPMI-8226 leukemia, in the experiment on RXF 393 renal and in the experiment with SF-539 CNS was more than 100 µM each time. The TGI in the experiment with SNB-19 CNS and with UACC-62 melanoma was more than 100 µM in each case.

Take `COc1cc(O)c2c(c1)C(=O)c1cc3c(c(O)c1C2=O)C(OC1OC(C)C(O)C(O)C1OC)C(OC)C(C)(O)C3=O` (centres undefined): the GI50 in the experiment with CCRF-CEM leukemia is 3.07 µM and 13.4 µM; with NCI/ADR-RES ovarian, 2.86 µM; in the experiment with OVCAR-8 ovarian, 1.42 µM and 0.373 µM; in the experiment on RPMI-8226 leukemia, 2.46 µM and 9.76 µM; with RXF 393 renal, 1010 nM; in the experiment with SNB-19 CNS, 2.42 µM. Moreover, the GI50 with UACC-62 melanoma was 1.68 µM. Further, the TGI with CCRF-CEM leukemia was > 100 µM and 74.1 µM; in the experiment with IGROV1 ovarian, 7.16 µM; in the experiment on NCI/ADR-RES ovarian it was 15.8 µM and 11 µM; in the experiment with OVCAR-8 ovarian, 5.27 µM and 1.62 µM; with RPMI-8226 leukemia it was 59.6 µM and 30.5 µM; with RXF 393 renal, 6.72 µM and 4.38 µM. Besides, the TGI was 4.52 µM and 5.99 µM with SF-539 CNS; 8.9 µM and 15.5 µM in the experiment on SNB-19 CNS; 3.16 µM and 4.1 µM in the experiment on UACC-62 melanoma.

`Cc1cc2c(c3oc(C4(C)OC4C4OC4C)cc(=O)c13)C(=O)c1c(O)c(C3CC(C)(N(C)C)C(O)C(C)O3)cc(C3CC(N(C)C)C(O)C(C)O3)c1C2=O` (centres undefined): the GI50 in the experiment with CCRF-CEM leukemia is 0.00013 µM; in the experiment on MDA-MB-435 it was 0.000285 µM; in the experiment on OVCAR-8 ovarian, 0.000731 µM and 0.000103 µM; with RXF 393 renal it was less than 0.01 nM; with SF-539 CNS, 0.000117 µM. Also, the TGI in the experiment with CCRF-CEM leukemia is 0.0499 µM and 0.041 µM; in the experiment with MDA-MB-435, 0.000256 µM and 0.00129 µM; in the experiment with RPMI-8226 leukemia, 0.0142 µM and 0.0557 µM and 0.00725 µM; in the experiment with RXF 393 renal it was 7.97e-05 µM and 0.000406 µM; in the experiment on SNB-19 CNS, 0.0713 µM and 0.00863 µM and 0.0158 µM; in the experiment with UACC-62 melanoma, 0.00016 µM and 0.000228 µM.
